Data taken from ChEMBL document CHEMBL1201862, “PubChem BioAssay data set” (2004).
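Exposure lasted 48 hours, with cells grown in 96-well plates and compounds tested at five concentrations. GI50 marks 50% less growth.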 The source made the active and inactive calls. No stated cut-off is given here; in the data, active = GI50 up to about 1.1 µM and inactive = higher.

Experiments:
Test in all cases: NCI tumour cell line growth inhibition, 48 h
NCI-H460 = tested on: NCI-H460
HOP-62 = tested on: HOP-62
NCI-H23 = tested on: NCI-H23
TK-10 = tested on: TK-10
MDA-N = tested on: MDA-N
MOLT-4 = tested on: MOLT-4
NCI-H522 = tested on: NCI-H522
SK-OV-3 = tested on: SK-OV-3
SN12C = tested on: SN12C
ACHN = tested on: ACHN
RPMI-8226 = tested on: RPMI-8226
DU-145 = tested on: DU-145
CCRF-CEM = tested on: CCRF-CEM
SF-295 = tested on: SF-295
SW-620 = tested on: SW-620
OVCAR-4 = tested on: OVCAR-4
COLO 205 = tested on: COLO 205
786-0 = tested on: 786-0
HOP-92 = tested on: HOP-92
NCI-H226 = tested on: NCI-H226

Row | Compound | GI50 (NCI-H460) | GI50 (HOP-62) | GI50 (NCI-H23) | GI50 (TK-10) | GI50 (MDA-N) | GI50 (MOLT-4) | GI50 (NCI-H522) | GI50 (SK-OV-3) | GI50 (SN12C) | GI50 (ACHN) | GI50 (RPMI-8226) | GI50 (DU-145) | GI50 (CCRF-CEM) | GI50 (SF-295) | GI50 (SW-620) | GI50 (OVCAR-4) | GI50 (COLO 205) | GI50 (786-0) | GI50 (HOP-92) | GI50 (NCI-H226)
1 | O=C(CCc1ccc(O)c(O)c1)NCCc1ccc(O)c(O)c1 | > 100 µM (inactive) | > 100 µM (inactive) | > 100 µM (inactive) | > 100 µM (inactive) | 18.1 µM (inactive) | 57.7 µM (inactive) | > 100 µM (inactive) | > 100 µM (inactive) | 37.1 µM (inactive) | > 100 µM (inactive) | > 100 µM (inactive) | > 100 µM (inactive) | 27.9 µM (inactive) | > 100 µM (inactive) | 67.6 µM (inactive) | 18.5 µM (inactive) | > 100 µM (inactive) | 18.6 µM (inactive) | > 100 µM (inactive) | > 100 µM (inactive)
2 | C=[N+](CNC(=O)CNC(=O)C(Cc1ccccc1)NC(=O)OC(C)(C)C)C(=O)CNC(=O)C(Cc1ccccc1)NC(=O)OC(C)(C)C (stereo unspecified) | > 100 µM (inactive) | > 100 µM (inactive) | > 100 µM (inactive) |  | > 100 µM (inactive) | > 100 µM (inactive) | > 100 µM (inactive) | > 100 µM (inactive) | > 100 µM (inactive) | > 100 µM (inactive) | > 100 µM (inactive) | > 100 µM (inactive) | > 100 µM (inactive) | > 100 µM (inactive) | > 100 µM (inactive) | > 100 µM (inactive) | > 100 µM (inactive) | > 100 µM (inactive) | > 100 µM (inactive) | > 100 µM (inactive)
3 | O=Cc1c2c(cc3c1CC1(C3)Cc3cc4c(c(C=O)c3C1)CCCC4)CCCC2 | 52.2 µM (inactive) | > 31.6 µM (inactive) | 27.5 µM (inactive) | > 31.6 µM (inactive) | > 31.6 µM (inactive) | 13.3 µM (inactive) | 14.3 µM (inactive) | > 31.6 µM (inactive) | > 31.6 µM (inactive) | 22.9 µM (inactive) | 16.8 µM (inactive) | 85.3 µM (inactive) |  | 20.6 µM (inactive) | 89.3 µM (inactive) | > 31.6 µM (inactive) | 25.1 µM (inactive) | > 31.6 µM (inactive) | 15.5 µM (inactive) | > 31.6 µM (inactive)
4 | CC(=O)O[C@@H]1[C@H](C(C)C)[C@@H](OC(C)=O)C/C(C)=C/CC[C@]2(C)O[C@@H]12 | > 100 µM (inactive) | > 100 µM (inactive) | > 100 µM (inactive) | > 100 µM (inactive) | > 100 µM (inactive) | > 100 µM (inactive) | > 100 µM (inactive) | > 100 µM (inactive) | > 100 µM (inactive) | > 100 µM (inactive) | > 100 µM (inactive) | > 100 µM (inactive) |  | > 100 µM (inactive) | > 100 µM (inactive) | > 100 µM (inactive) | > 100 µM (inactive) | > 100 µM (inactive) | > 100 µM (inactive) | > 100 µM (inactive)
5 | O=C(/C=C/c1ccc([N+](=O)[O-])cc1)c1nc2ccccc2[nH]1 | 11.4 µM (inactive) | > 34.2 µM (inactive) |  | 3.57 µM (inactive) | 72.1 µM (inactive) | 25.2 µM (inactive) | 32.9 µM (inactive) | > 100 µM (inactive) | > 100 µM (inactive) | 74.3 µM (inactive) | 5.73 µM (inactive) | 97.3 µM (inactive) | 20 µM (inactive) | > 100 µM (inactive) | 26.2 µM (inactive) | > 66.1 µM (inactive) | 58.7 µM (inactive) | 27.4 µM (inactive) | 45.5 µM (inactive) | 1.05 µM (active)
6 | C[C@]12C=CC(=O)C=C1CC[C@@H]1[C@@H]2CC[C@@]2(C)[C@H]1CC[C@]2(O)C(N)=O | > 100 µM (inactive) | > 100 µM (inactive) | > 100 µM (inactive) | > 100 µM (inactive) | > 100 µM (inactive) | > 100 µM (inactive) | > 100 µM (inactive) | > 100 µM (inactive) | > 100 µM (inactive) | > 100 µM (inactive) | > 100 µM (inactive) | > 100 µM (inactive) | > 100 µM (inactive) | > 100 µM (inactive) | > 100 µM (inactive) | > 100 µM (inactive) | > 100 µM (inactive) | > 100 µM (inactive) | > 100 µM (inactive) | > 100 µM (inactive)
7 | CCNCC(=O)O[C@]1(CC)C(=O)OCc2c1cc1n(c2=O)Cc2cc3ccccc3nc2-1 | 0.0277 µM (active) | 0.0275 µM (active) | 0.0849 µM (active) | 7.4 µM (inactive) | 1.36 µM (inactive) | 0.0195 µM (active) | 0.221 µM (active) | 0.258 µM (active) | 0.0619 µM (active) | 0.0441 µM (active) | 0.237 µM (active) | 0.0465 µM (active) | 0.0142 µM (active) | 0.0586 µM (active) | 0.434 µM (active) | 2.25 µM (inactive) | 1.69 µM (inactive) | 0.0455 µM (active) | 1.16 µM (inactive) | 0.115 µM (active)
8 | Cc1ccc(S(=O)(=O)N/N=C2/C3CC4CCC2C4C3)cc1 (stereo unspecified) | > 100 µM (inactive) | > 100 µM (inactive) | > 100 µM (inactive) | > 100 µM (inactive) | > 100 µM (inactive) |  | > 100 µM (inactive) | > 100 µM (inactive) | > 100 µM (inactive) | > 100 µM (inactive) | > 100 µM (inactive) | > 100 µM (inactive) |  | > 100 µM (inactive) | > 100 µM (inactive) | > 100 µM (inactive) | > 100 µM (inactive) | > 100 µM (inactive) | > 100 µM (inactive) | > 100 µM (inactive)
9 | COc1cc2c(cc1OC)C1Cc3ccccc3CCN1CC2 (stereo unspecified) | > 100 µM (inactive) | > 100 µM (inactive) | > 100 µM (inactive) | > 100 µM (inactive) | > 100 µM (inactive) | 35.1 µM (inactive) | > 100 µM (inactive) | > 100 µM (inactive) | > 100 µM (inactive) | > 100 µM (inactive) | > 100 µM (inactive) | > 100 µM (inactive) | > 100 µM (inactive) | 81.1 µM (inactive) | > 100 µM (inactive) | > 100 µM (inactive) | 64.4 µM (inactive) | 50 µM (inactive) | 36.1 µM (inactive) | 60.4 µM (inactive)
10 | O=C1/C(=C/c2ccc3c(c2)CCC3)Cc2cc3c(cc21)CCC3 | > 100 µM (inactive) | > 100 µM (inactive) | > 100 µM (inactive) | > 100 µM (inactive) | > 100 µM (inactive) | > 100 µM (inactive) | > 100 µM (inactive) | > 100 µM (inactive) | > 100 µM (inactive) | > 100 µM (inactive) | > 100 µM (inactive) | > 100 µM (inactive) | > 100 µM (inactive) | > 100 µM (inactive) | > 100 µM (inactive) | > 100 µM (inactive) | > 100 µM (inactive) |  | < 0.01 µM (active) | > 100 µM (inactive)
11 | CSc1nc2c3ccccc3ccn2c1C(=O)N/N=C/c1ccccc1 | 17.3 µM (inactive) | 13 µM (inactive) | 30.2 µM (inactive) |  | 97.3 µM (inactive) | > 100 µM (inactive) | > 94.4 µM (inactive) | 19.6 µM (inactive) | 28.1 µM (inactive) | 9.06 µM (inactive) | > 100 µM (inactive) | > 74.6 µM (inactive) | > 100 µM (inactive) | 24 µM (inactive) | 97.9 µM (inactive) | 14.1 µM (inactive) | > 73.6 µM (inactive) | 15.5 µM (inactive) | 1.65 µM (inactive) | 36 µM (inactive)
12 | N#CC(=C1CCCCC1)c1nc2ccccc2o1 | > 100 µM (inactive) | > 100 µM (inactive) | 66.8 µM (inactive) | > 100 µM (inactive) | 74.5 µM (inactive) | > 100 µM (inactive) | 20.6 µM (inactive) | > 100 µM (inactive) | > 100 µM (inactive) | > 100 µM (inactive) | 25.9 µM (inactive) | > 100 µM (inactive) | 49.1 µM (inactive) | > 100 µM (inactive) |  | 52.8 µM (inactive) | 19.6 µM (inactive) | > 100 µM (inactive) | 34.5 µM (inactive) | 56.2 µM (inactive)
13 | Clc1ccc(CSC2=NCCN2)cc1Cl | 16.1 µM (inactive) | 23.4 µM (inactive) | 15.6 µM (inactive) | 16.7 µM (inactive) | 11.7 µM (inactive) | 11.2 µM (inactive) | 4.5 µM (inactive) | 24.6 µM (inactive) | 15.2 µM (inactive) | 15 µM (inactive) | 6.75 µM (inactive) | 14.7 µM (inactive) | 5.36 µM (inactive) | 36.8 µM (inactive) | 16.2 µM (inactive) | 11.6 µM (inactive) | 17.7 µM (inactive) | 11.6 µM (inactive) | 3.3 µM (inactive) | 20.7 µM (inactive)
14 | CCN(CC)C(=O)CCNC(C)Cc1c[nH]c2ccccc12 (stereo unspecified) | > 100 µM (inactive) | > 100 µM (inactive) | > 100 µM (inactive) | > 100 µM (inactive) | > 100 µM (inactive) | > 100 µM (inactive) | > 100 µM (inactive) | > 100 µM (inactive) | > 100 µM (inactive) | > 100 µM (inactive) | > 100 µM (inactive) | > 100 µM (inactive) | > 100 µM (inactive) | > 100 µM (inactive) | > 100 µM (inactive) | > 100 µM (inactive) | > 100 µM (inactive) | > 100 µM (inactive) | 96.8 µM (inactive) | > 100 µM (inactive)
